Experimental data published in ChEMBL document CHEMBL1123199, “Synthesis and structure-activity relationships of naftifine-related allylamine antimycotics” (1986).
≈ marks a conversion by molar mass, not a printed value.

What was measured:
[1] = test system: Sporothrix schenckii; assay: Antifungal activity measured against Sporothrix schenck ii.; type: functional
[2] = test system: Candida parapsilosis; assay: Antifungal activity against Candida parapsilosis.; type: functional; conditions: Lodderomyces parapsilosis
[3] = Antifungal activity against Trichophyton mentagrophytes.; type: functional, Arthroderma benhamiae; conditions: Trichophyton benhamiae
[4] = test system: Aspergillus fumigatus; assay: Antifungal activity measured against Aspergillus fumigatus; type: functional
[5] = test system: Microsporum canis; assay: Antifungal activity against Microsporum canis; type: functional
[6] = test system: Epidermophyton floccosum; assay: Antifungal activity against Epidermophyton floccosum.; type: functional
[7] = test system: Trichophyton benhamiae; assay: Antifungal activity measured against Trichophyton mentagrophytes; type: functional, Arthroderma benhamiae
[8] = test system: Cavia porcellus; assay: In vivo antifungal activity by topical treatment of guinea pig dermatophytosis caused by Trichophyton mentagrophytes at a dose of 0.5%; type: functional
[9] = test system: Cavia porcellus; assay: In vivo antifungal activity by topical treatment of guinea pig dermatophytosis caused by Trichophyton mentagrophytes at a dose of 0.1%; type: functional
[10] = test system: Cavia porcellus; assay: In vivo antifungal activity by topical treatment of guinea pig dermatophytosis caused by Trichophyton mentagrophytes at a dose of 2%; type: functional
[11] = test system: Trichophyton quinckeanum; assay: Antifungal activity was measured against Trichophyton mentagrophytes.; type: functional, ptrichophyton mentagrophytes
[12] = test system: Candida parapsilosis; assay: Antifungal activity was measured against Candida parapsilosis.; conditions: Lodderomyces parapsilosis

CN(C/C=C/CCc1ccccc1)Cc1cccc2ccccc12
MIC [1]: > 100 µg/mL | MIC [2]: > 100 µg/mL | MIC [3]: 1.6 µg/mL (≈ 5.07 µM) | MIC [4]: > 100 µg/mL | MIC [5]: 12.5 µg/mL (≈ 39.6 µM) | MIC [6]: 12.5 µg/mL (≈ 39.6 µM)

C(=C\c1ccccc1)/COCc1cccc2ccccc12
MIC [1]: > 100 µg/mL | MIC [2]: > 100 µg/mL | MIC [3]: 3.1 µg/mL (≈ 11.3 µM) | MIC [4]: > 100 µg/mL | MIC [5]: > 100 µg/mL | MIC [6]: > 100 µg/mL

CN(C/C=C/c1ccccc1)Cc1ccccc1
MIC [1]: > 100 µg/mL | MIC [2]: > 100 µg/mL | MIC [3]: > 100 µg/mL | MIC [4]: > 100 µg/mL | MIC [5]: > 100 µg/mL | MIC [6]: > 100 µg/mL

CN(C/C=C/c1ccccc1)CCc1cccc2ccccc12
MIC [1]: 25 µg/mL (≈ 82.9 µM) | MIC [2]: 50 µg/mL (≈ 166 µM) | MIC [3]: 12.5 µg/mL (≈ 41.5 µM) | MIC [4]: 100 µg/mL (≈ 332 µM) | MIC [5]: 50 µg/mL (≈ 166 µM) | MIC [6]: 25 µg/mL (≈ 82.9 µM)

CN(C/C=C/c1ccccc1)C(=O)c1cccc2ccccc12
MIC [7]: ≤ 1.6 µg/mL | Activity [8]: 0% | MIC [1]: 25 µg/mL (≈ 82.9 µM) | Activity [9]: 0% | MIC [2]: > 100 µg/mL | MIC [4]: 12.5 µg/mL (≈ 41.5 µM) | MIC [5]: ≤ 1.6 µg/mL | MIC [6]: ≤ 1.6 µg/mL | Activity [10]: 60%

CCCCCOC(=O)/C=C/CN(C)Cc1cccc2ccccc12
MIC [7]: < 1.6 µg/mL | Activity [8]: 0% | MIC [1]: < 1.6 µg/mL | Activity [9]: 0% | MIC [2]: 25 µg/mL (≈ 76.8 µM) | MIC [4]: 50 µg/mL (≈ 154 µM) | MIC [5]: < 1.6 µg/mL | MIC [6]: < 1.6 µg/mL | Activity [10]: 10%

CN(C/C=C/c1ccccc1)C1CCCc2ccccc21 (centres undefined)
MIC [1]: 100 µg/mL (≈ 360 µM) | MIC [2]: > 100 µg/mL | MIC [3]: 12.5 µg/mL (≈ 45.1 µM) | MIC [4]: > 100 µg/mL | MIC [5]: 50 µg/mL (≈ 180 µM) | MIC [6]: 50 µg/mL (≈ 180 µM)

CN(CCCc1ccccc1)Cc1cccc2ccccc12
MIC [1]: > 100 µg/mL | MIC [2]: > 100 µg/mL | MIC [3]: 12.5 µg/mL (≈ 43.2 µM) | MIC [4]: > 100 µg/mL | MIC [5]: > 100 µg/mL | MIC [6]: > 100 µg/mL

CN(C/C=C/c1ccc(F)cc1)Cc1cccc2ccccc12
MIC [7]: 0.1 µg/mL (≈ 0.327 µM) | Activity [8]: 82% | MIC [1]: 1.6 µg/mL (≈ 5.24 µM) | Activity [9]: 21% | MIC [2]: 3.1 µg/mL (≈ 10.2 µM) | MIC [4]: 25 µg/mL (≈ 81.9 µM) | MIC [5]: 0.2 µg/mL (≈ 0.655 µM) | MIC [6]: 0.1 µg/mL (≈ 0.327 µM) | Activity [10]: 100%

CN(C/C=C/c1ccsc1)Cc1cccc2ccccc12
MIC [7]: 0.1 µg/mL (≈ 0.341 µM) | Activity [8]: 47% | MIC [1]: 3.1 µg/mL (≈ 10.6 µM) | Activity [9]: 7% | MIC [2]: 6.2 µg/mL (≈ 21.1 µM) | MIC [4]: 50 µg/mL (≈ 170 µM) | MIC [5]: 0.2 µg/mL (≈ 0.682 µM) | MIC [6]: 0.1 µg/mL (≈ 0.341 µM) | Activity [10]: 100%

CN(C/C=C/C1=CCCCCC1)Cc1cccc2ccccc12
MIC [7]: 0.05 µg/mL (≈ 0.164 µM) | Activity [8]: 85% | MIC [1]: 0.8 µg/mL (≈ 2.62 µM) | Activity [9]: 29% | MIC [2]: 1.6 µg/mL (≈ 5.24 µM) | MIC [4]: 25 µg/mL (≈ 81.8 µM) | MIC [5]: 0.05 µg/mL (≈ 0.164 µM) | MIC [6]: 0.1 µg/mL (≈ 0.327 µM) | Activity [10]: 100%

COc1ccc(CN(C)C/C=C/c2ccccc2)c2ccccc12
Activity [8]: 41% | MIC [1]: 50 µg/mL (≈ 158 µM) | MIC [2]: 50 µg/mL (≈ 158 µM) | MIC [3]: ≤ 1.6 µg/mL | MIC [4]: > 100 µg/mL | MIC [5]: ≤ 1.6 µg/mL | MIC [6]: ≤ 1.6 µg/mL | Activity [10]: 65%

Cc1ccc(CN(C)C/C=C/c2ccccc2)c2ccccc12
MIC [1]: 3.1 µg/mL (≈ 10.3 µM) | MIC [2]: 12.5 µg/mL (≈ 41.5 µM) | MIC [3]: 0.1 µg/mL (≈ 0.332 µM) | MIC [4]: > 100 µg/mL | MIC [5]: 0.4 µg/mL (≈ 1.33 µM) | MIC [6]: 0.2 µg/mL (≈ 0.663 µM)

CN(C/C=C/c1ccccc1)Cc1ccnc2ccccc12
MIC [7]: 1.6 µg/mL (≈ 5.55 µM) | Activity [8]: 0% | MIC [1]: 12.5 µg/mL (≈ 43.3 µM) | Activity [9]: 0% | MIC [2]: 2.5 µg/mL (≈ 8.67 µM) | MIC [4]: > 100 µg/mL | MIC [5]: 1.6 µg/mL (≈ 5.55 µM) | MIC [6]: 1.6 µg/mL (≈ 5.55 µM) | Activity [10]: 3%

CN(C/C=C/c1ccccc1)CC1CCCc2ccccc21 (centres undefined)
MIC [1]: 100 µg/mL (≈ 343 µM) | MIC [2]: > 100 µg/mL | MIC [3]: 6.2 µg/mL (≈ 21.3 µM) | MIC [4]: > 100 µg/mL | MIC [5]: 50 µg/mL (≈ 172 µM) | MIC [6]: 50 µg/mL (≈ 172 µM)

CN(C/C=C/Cc1ccccc1)Cc1cccc2ccccc12
MIC [1]: > 100 µg/mL | MIC [2]: > 100 µg/mL | MIC [3]: 50 µg/mL (≈ 166 µM) | MIC [4]: > 100 µg/mL | MIC [5]: 50 µg/mL (≈ 166 µM) | MIC [6]: 50 µg/mL (≈ 166 µM)

CN(C/C=C/c1ccccc1F)Cc1cccc2ccccc12
Activity [8]: 59% | MIC [1]: 6.25 µg/mL (≈ 20.5 µM) | Activity [9]: 0% | MIC [2]: 12.5 µg/mL (≈ 40.9 µM) | MIC [4]: 100 µg/mL (≈ 327 µM) | MIC [5]: ≤ 1.6 µg/mL | MIC [11]: ≤ 1.6 µg/mL | MIC [6]: ≤ 1.6 µg/mL | Activity [10]: 94%

CN(C/C=C/c1ccccc1)Cc1c(O)ccc2ccccc12
MIC [1]: 100 µg/mL (≈ 330 µM) | MIC [2]: > 100 µg/mL | MIC [3]: 25 µg/mL (≈ 82.4 µM) | MIC [4]: > 100 µg/mL | MIC [5]: 50 µg/mL (≈ 165 µM) | MIC [6]: 50 µg/mL (≈ 165 µM)

CCOC(=O)/C=C/CN(C)Cc1cccc2ccccc12
MIC [7]: < 1.6 µg/mL | Activity [8]: 0% | MIC [1]: 12.5 µg/mL (≈ 44.1 µM) | Activity [9]: 0% | MIC [2]: > 100 µg/mL | MIC [4]: > 100 µg/mL | MIC [5]: 6.25 µg/mL (≈ 22.1 µM) | MIC [6]: 3.1 µg/mL (≈ 10.9 µM) | Activity [10]: 16%

CN(C/C=C/c1ccccc1)Cc1cccc2ccccc12 [NAFTIFINE]
Activity [8]: 88% | MIC [1]: 1.6 µg/mL (≈ 5.57 µM) | Activity [9]: 35% | MIC [3]: 0.05 µg/mL (≈ 0.174 µM) | MIC [12]: 1.6 µg/mL (≈ 5.57 µM) | MIC [4]: 12.5 µg/mL (≈ 43.5 µM) | MIC [5]: 0.1 µg/mL (≈ 0.348 µM) | MIC [6]: 0.1 µg/mL (≈ 0.348 µM) | Activity [10]: 100%
